Experimental data reported in publication PMC12418703, “Avenanthramides and avenacosides as biomarkers of oat intake: a pharmacokinetic study of solid and liquid oat consumption under single and repeated dose conditions” (Nutrition Journal, 2025).
Where two headings read alike, the source gives them in different places.

What was measured:
[1] = parameters: method as in PMID 30977921; conditions: cited from earlier work
[2] = Plasma pharmacokinetics after a single dose of liquid or solid oat product (compartmental PK model); assay type: in vivo, humans; parameters: V/F: unit not given here; conditions: for Cmax / half-life / k el / Tmax: both sexes, oral; for Cmax / half-life / k el: human, plasma; for Cmax / half-life / k el / Tmax / T1/2 / ka / V/F: single dose; for k el: elimination rate (Table 2), read-out: ke (converted); for Tmax: human plasma, derived from PK model; for V, population estimate (RSE%) / ka, population estimate (RSE%) / ke, population estimate (RSE%): Table S1 compartmental model; for ka: absorption rate (Table 2); for V/F: distribution volume over bioavailability
Source text: A non-blinded, randomized two-way crossover study with two different oat products (solid or liquid) was designed to investigate the AVA and AVE PK after a single dose and after repeated dosing at three different doses, for respective food (Fig. 2). Since this is the first study of its kind, it is impossible to make any formal calculation of the number of subjects needed to show meaningful differences in plasma biomarker concentrations, since the variation is unknown. However, similar studies aimed for BFI discovery and validation of dose-response have typically used 5–30 subjects. We therefore considered 23 individuals as a good compromise between feasibility and possibilities to assess variation in biomarker concentrations, estimate pharmacokinetic parameters, dose response and performing modelling with good precision. A scientist not involved in the study, conducted the randomization using the RAR method (RandomizeR package) in R software environment and provided lists with allocated treatment sequences. The study was conducted in two phases. In the first phase, blood samples were drawn from 11 men and 12 women for 24 h after consumption of a single dose of either a solid or a liquid oat product on-site. Breakfast and lunch were also provided on-site. A single dose of solid (62 g of oat flakes) or liquid (196 mL of oat drink) containing individual AVAs and AVEs shown in Table 1 were consumed, respectively. Blood plasma samples were drawn for 24 h (0 h, 0.25 h, 0.5 h, 0.75 h, 1 h, 1.5 h, 2 h, 3 h, 4 h, 5 h, 6 h, 7 h, 8 h, 24 h). After the 24 h, at the second phase of the study, the corresponding product was further consumed three times per day for four days at either a low, medium, or high intake dose (98, 196 and 392 mL for liquid oats and 31, 62 and 123 g for oat flakes with corresponding contents of AVAs and AVEs (Table 1) in a Latin square design. Therefore, a total number of 8 participants (2 males and 6 females) were randomized to the low dose, 9 participants (3 males and 6 females) for medium dose and 6 participants (3males and 3 females) for the high dose. Participants consumed the provided products at home and were instructed to follow their habitual diets with restriction on the consumption of oat products. A list of relevant foods was provided as a guide. The oat flakes were pre-portioned into individual bags and could be consumed without heating, mixed with yoghurt, cottage cheese, sour milk or any liquid. Participants were instructed to consume the full amount, including the liquid or food the oats were mixed with. Liquid oat products were weighed prior consumption, and they were to be consumed without any additional food. In all cases the time of oat intake was recorded in a food journal. On the fifth day of phase II, a fasting sample was drawn. Fecal samples were collected at baseline and at the end of phase II of the intervention. Between each study period, there was a wash-out period of eight days where participants consumed their habitual diet. After the washout, participants started with a single dose and repeated dosing for the other product in the same way as for the first. The participants were instructed to avoid foods containing oats during the last three days prior to the start of the study and during the last three days of the wash-out period. Compliance was assessed based on information provided in a compliance journal during the study weeks as well as through 2-day food records. The oat products used in the study were provided to the participants. The flakes for the single dose were consumed with water ad lib and for the repeated dose they could be mixed with water, yoghurt, milk, sour milk or cottage cheese with the condition that all the amount of the oat product is consumed. The oat drink was consumed without any other product.
All blood samples were collected into EDTA-coated tubes by a trained nurse. […]

[3] = parameters: method as in PMID 39491249; conditions: in the presence of starch; cited from earlier work
[4] = system: Feacalibacterium prausnitzii; experiment: Association of F. prausnitzii relative abundance at baseline with Cmax and AUC strata (logistic regression); parameters: species or system humans; conditions: liquid, solid, or combined; single dose phase I
Protocol: DNA was extracted from approximately 35 mg of each of the 451 fecal samples using the NucleoSpin Soil kit (Macherey-Nagel, 740780.250 M), following the manufacturer’s instructions. DNA yield was quantified using the Qubit 1X dsDNA Broad Range assay kit (Thermo Fisher Scientific, Q33266). For metagenomic shotgun sequencing, libraries were prepared with the MGIEasy Fast FS DNA Library Prep Set (MGI Tech Co., Ltd., 940-000030-00, Werheim, Germany), using 400 ng of DNA per sample. The library preparation process included DNA shearing for 12.5 min, followed by end repair, A-tailing, and magnetic bead-based cleanup. Adapter ligation and cleanup were then performed, followed by PCR amplification and magnetic bead-based size selection of the final library product. Library quality was assessed using the Qubit 1X dsDNA HS Assay Kit (Thermo Fisher Scientific, Q33231) and the Agilent High Sensitivity D1000 Assay Kit (Agilent Technologies, 5067–5584 and 5067–5585, Santa Clara, CA, USA). Pooled libraries were circularized, barcoded, and used as templates for DNA nanoball preparation. The nanoballs were then analyzed on the DNBSEQ-T7 platform (MGI Tech Co., Ltd.) using the DNBSEQ-T7RS High-throughput Sequencing Set (FCL PE150), according to the manufacturer’s guidelines.
Raw metagenomic reads underwent quality control to remove low-quality sequences, adapters, and contaminants using Fastp (version 0.23.2, default parameters). High-quality reads were filtered to exclude human reads (GRCh38_noalt_as) using Bowtie2 [38] (version 2.5.3). The quality-filtered reads were then aligned to the taxonomy database using MetaPhlAn (version 4.0.6, default parameters) to generate relative abundance profiles. For inclusion in the analysis, a species was required to be present in at least three samples.
For the seven metabolites AVE A, AVE B, AVA 2c, AVA 2f, AVA 2fd, AVA 2p, AVA 2pd analysed at phase I after the single dose of oat products, Cmax and area under the curve (AUC) were stratified based on less than the median or more or equal to the […]. Thereafter, for each metabolite, it was investigated whether the relative abundance of F. prausnitzii at baseline could predict the strata since this bacterium has previously been reported to be responsible for production of their dihydro-metabolites. Logistic regression with a binomial distribution and a logistic link function was used to separately analyze the liquid and solid products. When analyzing liquid and solid products together, a generalized linear mixed model with a binomial distribution and a logistic link function was used, with identity included as a random factor.

[5] = in the presence of whey protein
[6] = 62 g of oat flakes, solid oat product (62 g oat flakes)
[7] = 196 mL of oat drink, liquid oat product (196 mL oat drink)
[8] = control samples (digestion without proteins)

For O=C(/C=C/c1ccc(O)cc1)Nc1ccc(O)cc1C(=O)O [AVA 2p], the change of bioaccessibility [1, 5] is given as “slight increase”, the Cmax ([2]; 62 g of oat flakes, solid) is given as 20 ± 2.12 nM and the half-life ([2]; 62 g of oat flakes, solid) is given as 1.42 ± 0.11 h. The k el ([2]; 62 g of oat flakes, solid) was 0.000136 s⁻¹, the Cmax ([2]; 196 mL of oat drink, liquid) was 4.94 ± 0.5 nM and the half-life ([2]; 196 mL of oat drink, liquid) was 1.3 h. The k el ([2]; 196 mL of oat drink, liquid) was 0.000144 s⁻¹, the Tmax [2, 6] was 1.91 ± 0.08 h and the Tmax [2, 7] was 1.21 ± 0.05 h. The “V, population estimate (RSE%)” value ([2]; liquid) was 113 (16) L, the “ka, population estimate (RSE%)” value ([2]; liquid) was 2.8 (9) 1/h and the “ke, population estimate (RSE%)” value ([2]; liquid) was 0.52 (10) 1/h. For the same molecule, the T1/2 ([2]; liquid) was 1.33 ± 0.10 h, the ka ([2]; liquid) was 2.8 ± 0.2^1 1/h and the V/F ([2]; liquid) was 111 ± 11^1. For the same molecule, the “V, population estimate (RSE%)” value ([2]; solid) was 220 (22) L, the “ka, population estimate (RSE%)” value ([2]; solid) was 1.6 (10) 1/h and the “ke, population estimate (RSE%)” value ([2]; solid) was 0.44 (17) 1/h. The ka ([2]; solid) was 1.50 ± 0.08 h⁻¹, the V/F ([2]; solid) was 250 ± 26 and the change of bioaccessibility [3] was “decreased”. The “association between F. prausnitzii abundance at baseline and Cmax and AUC” value [4] was “no significant associations”.
For COc1cc(/C=C/C(=O)Nc2ccc(O)cc2C(=O)O)ccc1O [AVA 2f], the change of bioaccessibility [1, 5] is given as “slight increase”, the Cmax ([2]; 62 g of oat flakes, solid) is given as 2.1 ± 0.22 nM and the half-life ([2]; 62 g of oat flakes, solid) is given as 2.28 ± 0.18 h. The k el ([2]; 62 g of oat flakes, solid) was 8.33e-05 s⁻¹, the Cmax ([2]; 196 mL of oat drink, liquid) was 0.69 ± 0.07 nM and the half-life ([2]; 196 mL of oat drink, liquid) was 3.2 h. It also gave a k el ([2]; 196 mL of oat drink, liquid) of 6.11e-05 s⁻¹, a Tmax [2, 6] of 1.11 ± 0.05 h and a Tmax [2, 7] of 0.98 ± 0.04 h. For the same molecule, the “V, population estimate (RSE%)” value ([2]; liquid) was 1600 (34) L, the “ka, population estimate (RSE%)” value ([2]; liquid) was 4.8 (3) 1/h and the T1/2 ([2]; liquid) was 3.19 ± 0.25^2 h. For the same molecule, the ka ([2]; liquid) was 5.0 ± 0.3^2 1/h, the V/F ([2]; liquid) was 1641 ± 168^2 and the “V, population estimate (RSE%)” value ([2]; solid) was 2600 (5) L. For the same molecule, the “ka, population estimate (RSE%)” value ([2]; solid) was 3.8 (26) 1/h, the ka ([2]; solid) was 3.8 ± 0.21 h⁻¹ and the V/F ([2]; solid) was 2561 ± 262. For the same molecule, the change of bioaccessibility [3] was “decreased” and the “association between F. prausnitzii abundance at baseline and Cmax and AUC” value [4] was “no significant associations”.
In the case of O=C(/C=C/c1ccc(O)c(O)c1)Nc1ccc(O)cc1C(=O)O [AVA 2c], the “bioaccessibility, times lower compared to AVA 2f” value [1, 8] is listed as 3.9 times, the “bioaccessibility, times lower compared to AVA 2p” value [1, 8] is listed as 4.6 times and the “bioaccessibility, times increase” value [1, 5] is listed as 3.6 times. It also gave a Cmax ([2]; 62 g of oat flakes, solid) of 4.91 ± 0.52 nM, a half-life ([2]; 62 g of oat flakes, solid) of 2.13 ± 0.16 h and a k el ([2]; 62 g of oat flakes, solid) of 9.17e-05 s⁻¹. It also gave a Cmax ([2]; 196 mL of oat drink, liquid) of 1.16 ± 0.12 nM, a half-life ([2]; 196 mL of oat drink, liquid) of 1.58 ± 0.12 h and a k el ([2]; 196 mL of oat drink, liquid) of 0.000122 s⁻¹. The Tmax [2, 6] was 1.37 ± 0.06 h, the Tmax [2, 7] was 0.73 ± 0.03 h and the “V, population estimate (RSE%)” value ([2]; liquid) was 500 (19) L. The “ka, population estimate (RSE%)” value ([2]; liquid) was 5.9 (18) 1/h, the “ke, population estimate (RSE%)” value ([2]; liquid) was 0.43 (17) 1/h and the ka ([2]; liquid) was 6.0 ± 0.3^1 1/h. The V/F ([2]; liquid) was 430 ± 42^2, the “V, population estimate (RSE%)” value ([2]; solid) was 720 (22) L and the “ka, population estimate (RSE%)” value ([2]; solid) was 2.8 (10) 1/h. The “ke, population estimate (RSE%)” value ([2]; solid) was 0.31 (17) 1/h, the ka ([2]; solid) was 2.8 ± 0.16 h⁻¹ and the V/F ([2]; solid) was 698 ± 71. The change of bioaccessibility [3] was “increased” and the “association between F. prausnitzii abundance at baseline and Cmax and AUC” value [4] was “no significant associations”.
